# Active and inactive are the calls of the source. No cut-off for these calls is given here.
# Columns and labels:
# RAW264.7 [1] = assay: Anti-inflammatory activity in mouse RAW264.7 cells assessed as inhibition of LPS-induced NO production incubated for 36 hrs by Griess assay; format: functional, cell-based; settings: for IC50: RAW264.7, 36 h
# Acetylcholinesterase = Acetylcholinesterase (Homo sapiens, UniProt P22303); assay: Inhibition of AChe (unknown origin) incubated for 0.25 hrs by DTNB-reagent based Ellman's method
# RAW264.7 [2] = assay: Anti-inflammatory activity in mouse RAW264.7 cells assessed as alleviation of LPS-induced IL-6 mRNA expression level at 12.5 to 50 uM by qRT-PCR analysis; format: functional, cell-based; settings: dose 12.5-50 µM
# RAW264.7 [3] = assay: Anti-inflammatory activity in mouse RAW264.7 cells assessed as alleviation of LPS-induced cox-2 mRNA expression level at 12.5 to 50 uM by qRT-PCR analysis; format: functional, cell-based; settings: dose 12.5-50 µM
# RAW264.7 [4] = assay: Anti-inflammatory activity in mouse RAW264.7 cells assessed as downregulation of the LPS-induced iNOS expression at 12.5 to 50 uM by qRT-PCR analysis; format: functional, cell-based; settings: dose 12.5-50 µM
# RAW264.7 [5] = assay: Anti-inflammatory activity in mouse RAW264.7 cells assessed as alleviation of LPS-induced TNF-alpha mRNA expression level at 12.5 to 50 uM by qRT-PCR analysis; format: functional, cell-based; settings: dose 12.5-50 µM
# RAW264.7 [6] = assay: Anti-inflammatory activity in mouse RAW264.7 cells assessed as alleviation of LPS-induced IL-1 beta mRNA expression level at 12.5 to 50 uM by qRT-PCR analysis; format: functional, cell-based; settings: dose 12.5-50 µM
# RAW264.7 [7] = assay: Anti-inflammatory activity in mouse RAW264.7 cells assessed as alleviation of LPS-induced COX-2 mRNA expression level at 10 to 40 uM by qRT-PCR analysis; format: functional, cell-based; settings: dose 10-40 µM
# RAW264.7 [8] = assay: Anti-inflammatory activity in mouse RAW264.7 cells assessed as alleviation of LPS-induced IL-1 beta mRNA expression level at 10 to 40 uM by qRT-PCR analysis; format: functional, cell-based; settings: dose 10-40 µM
# RAW264.7 [9] = assay: Anti-inflammatory activity in mouse RAW264.7 cells assessed as alleviation of LPS-induced IL-6 mRNA expression level at 10 to 40 uM by qRT-PCR analysis; format: functional, cell-based; settings: dose 10-40 µM
# RAW264.7 [10] = assay: Anti-inflammatory activity in mouse RAW264.7 cells assessed as alleviation of LPS-induced TNF-alpha mRNA expression level at 10 to 40 uM by qRT-PCR analysis; format: functional, cell-based; settings: dose 10-40 µM
# RAW264.7 [11] = assay: Anti-inflammatory activity in mouse RAW264.7 cells assessed as downregulation of the LPS-induced IL-10 mRNA expression at 12.5 to 50 uM by qRT-PCR analysis; format: functional, cell-based; settings: dose 12.5-50 µM
# Acetylcholinesterase, sequence (P22303 whole entry): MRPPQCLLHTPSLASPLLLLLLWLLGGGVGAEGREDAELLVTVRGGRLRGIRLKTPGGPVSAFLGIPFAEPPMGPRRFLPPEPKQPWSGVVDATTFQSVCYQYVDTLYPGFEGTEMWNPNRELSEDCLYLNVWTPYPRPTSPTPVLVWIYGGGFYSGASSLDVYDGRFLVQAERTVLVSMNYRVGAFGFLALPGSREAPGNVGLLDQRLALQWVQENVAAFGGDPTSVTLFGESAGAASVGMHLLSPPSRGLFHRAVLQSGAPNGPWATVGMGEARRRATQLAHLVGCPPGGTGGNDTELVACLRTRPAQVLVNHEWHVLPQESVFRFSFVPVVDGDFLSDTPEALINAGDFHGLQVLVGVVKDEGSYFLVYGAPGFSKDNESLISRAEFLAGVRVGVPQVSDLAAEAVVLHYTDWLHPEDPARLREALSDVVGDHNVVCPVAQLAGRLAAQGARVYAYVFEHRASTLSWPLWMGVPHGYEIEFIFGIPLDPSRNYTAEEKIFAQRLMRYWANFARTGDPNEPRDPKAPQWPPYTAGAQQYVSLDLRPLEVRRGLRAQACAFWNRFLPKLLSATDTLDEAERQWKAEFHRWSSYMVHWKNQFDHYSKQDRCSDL
SMILES,Activity (RAW264.7 [1]),IC50 (Acetylcholinesterase) [µM],also measured
CCOC(=O)c1c(C)cc(OC(=O)c2c(C)cc(O)cc2O)cc1O,inactive,15,
Cc1cc(O)cc(OC(=O)c2c(C)cc(O)c(C=O)c2O)c1,inactive,15,
COCc1c(O)c(Oc2c(C=O)c(O)cc(C)c2C(=O)OC)c2c(c1O)C(=O)O[C@H]2O,inactive,7.1,
Cc1cc(O)c(C)c(O)c1,inactive,25,
COC(=O)c1c(C)cc(O)c(Cc2c(O)cc(C)cc2O)c1O,inactive,15,
OCc1cc(O)cc(O)c1,inactive,28,
Cc1cc(O)cc(O)c1C(=O)O [ORSELLINIC ACID],inactive,26,
CCOC(=O)c1c(C)cc(O)c(Cc2c(C)c(C(=O)OC)c(O)c(C)c2O)c1O,,,Activity (RAW264.7 [2]): Active; Activity (RAW264.7 [3]): Active; IC50 (RAW264.7 [1]): 28 µM; Activity (RAW264.7 [4]): Active; Activity (RAW264.7 [5]): Active; Activity (RAW264.7 [6]): Active
CCOC(=O)c1c(O)cc(O)c(Cc2c(O)cc(C)c(C(=O)OCC)c2O)c1C,inactive,19,
COC(=O)c1c(C)cc(O)c(Cc2c(C)c(C(=O)OC)c(O)c(C)c2O)c1O,,,IC50 (RAW264.7 [1]): 20 µM; Activity (RAW264.7 [7]): Active; Activity (RAW264.7 [8]): Active; Activity (RAW264.7 [9]): Active; Activity (RAW264.7 [10]): Active
COC(=O)c1c(C)cc(O)cc1O [METHYL ORSELLINATE],inactive,24,
CC(=O)C1=C(O)C=C2Oc3c(C(C)=O)c(O)c(C)c(O)c3[C@@]2(C)C1=O [(+)-USNIC ACID],inactive,28,
CCOC(=O)c1c(O)cc(O)c(Cc2c(O)cc(C)c(C(=O)OC)c2O)c1C,,20,Activity (RAW264.7 [11]): Active; IC50 (RAW264.7 [1]): 35 µM
